Source: patent US11078228B2, “Ectonucleotidase inhibitors and methods of use thereof” (Calithera Biosciences, Inc., priority 2018, dated 2021)

target: recombinant CD73 (Homo sapiens (Human), UniProt P21589); test: Assay 2: Inhibition of the CD73 enzyme in vitro (0.05 nM CD73, 1 hour 37° C., Malachite Green); assay type: biochemical; conditions: 0.05 nM CD73, 50 μM AMP, 1 hour at 37° C.
Method in brief: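 Free phosphate was quantified from absorbance at 630 nm against a phosphate standard curve. This was read 5 min after Malachite Green was added at room temperature. Beforehand, the recombinant soluble enzyme reacted for 1 hour at 37° C.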

Sequence of recombinant CD73 (P21589 27-547): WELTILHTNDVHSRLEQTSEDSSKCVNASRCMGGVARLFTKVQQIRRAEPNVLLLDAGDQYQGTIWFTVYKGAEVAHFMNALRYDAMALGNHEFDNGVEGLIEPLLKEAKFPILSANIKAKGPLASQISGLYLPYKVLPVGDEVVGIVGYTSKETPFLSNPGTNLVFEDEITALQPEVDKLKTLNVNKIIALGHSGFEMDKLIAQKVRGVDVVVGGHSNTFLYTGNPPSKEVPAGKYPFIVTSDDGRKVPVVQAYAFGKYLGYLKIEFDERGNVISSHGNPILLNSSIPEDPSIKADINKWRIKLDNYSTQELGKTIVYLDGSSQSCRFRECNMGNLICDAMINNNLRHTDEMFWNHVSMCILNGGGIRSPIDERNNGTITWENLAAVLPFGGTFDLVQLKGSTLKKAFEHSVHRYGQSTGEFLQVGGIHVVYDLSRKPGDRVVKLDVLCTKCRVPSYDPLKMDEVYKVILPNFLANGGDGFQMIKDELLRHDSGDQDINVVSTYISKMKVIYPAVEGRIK

Compared with `C#C[C@@]1(O)[C@@H](COC(Cc2ccc(-c3ccc[nH]c3=O)cc2)(C(=O)O)C(=O)O)O[C@@H](n2cnc3c(N)nc(Cl)nc32)[C@@H]1O` [Example 12, 2-(((2R,3S,4R,5R)-5-(6-amino-2-chloro-9H-purin-9-yl)-3-ethynyl-3,4-dihydroxytetrahydrofuran-2-yl)methoxy)-2-(4-(2-oxo-1,2-dihydropyridin-3-yl)benzyl)malonic acid], `C#C[C@@]1(O)[C@@H](COC(Cc2ccc(-c3cccn(CCC)c3=O)cc2)(C(=O)O)C(=O)O)O[C@@H](n2cnc3c(N)nc(Cl)nc32)[C@@H]1O` [Example 19, 2-(((2R,3S,4R,5R)-5-(6-amino-2-chloro-9H-purin-9-yl)-3-ethynyl-3,4-dihydroxytetrahydrofuran-2-yl)methoxy)-2-(4-(2-oxo-1-propy-1,2-dihydropyridin-3-yl)benzyl)malonic acid] is 2-fold higher in IC50: 0.1 nM for the first, 0.2 nM for the second. The first is the more potent here.

Going from `C#C[C@@]1(O)[C@@H](COC(Cc2ccccc2)(C(=O)O)C(=O)O)O[C@@H](n2cnc3c(N(C)CCOC)nc(Cl)nc32)[C@@H]1O` [Example 39, 2-benzyl-2-(((2R,3S,4R,5R)-5-(2-chloro-6-((2-methoxyethyl)-(methyl)amino)-9H-purin-9-yl)-3-ethynyl-3,4-dihydroxytetrahydrofuran-2-yl)methoxy)malonic acid] to `C#C[C@@]1(O)[C@@H](COC(Cc2ccccc2)(C(=O)O)C(=O)O)O[C@@H](n2cnc3c(N(C)C)nc(Cl)nc32)[C@@H]1O` [Example 31, 2-benzyl-2-(((2R,3S,4R,5R)-5-(2-chloro-6-(dimethylamino)-9H-purin-9-yl)-3-ethynyl-3,4-dihydroxytetrahydrofuran-2-yl)methoxy)malonic acid], the IC50 falls from 3 nM to 2 nM (1.5-fold).

`C#C[C@@]1(O)[C@@H](COC(Cc2ccccc2)(C(=O)O)C(=O)O)O[C@@H](n2cnc3c(N4CC[C@@H](CO)C4)nc(Cl)nc32)[C@@H]1O` [Example 102, 2-benzyl-2-(((2R,3S,4R,5R)-5-(2-chloro-6-((R)-3-(hydroxymethyl)-pyrrolidin-1-yl)-9H-purin-9-yl)-3-ethynyl-3,4-dihydroxytetrahydrofuran-2-yl)methoxy)malonic acid] and `C#C[C@@]1(O)[C@@H](COC(Cc2ccccc2)(C(=O)O)C(=O)O)O[C@@H](n2cnc3c(N4CC(CO)C4)nc(Cl)nc32)[C@@H]1O` [Example 46, 2-benzyl-2-(((2R,3S,4R,5R)-5-(2-chloro-6-(3-(hydroxymethyl)azetidin-1-yl)-9H-purin-9-yl)-3-ethynyl-3,4-dihydroxytetrahydrofuran-2-yl)methoxy)malonic acid] are the same in IC50: 1 nM for the first, 1 nM for the second.

Compared with `C#C[C@@]1(O)[C@@H](COC(Cc2ccccc2)(C(=O)O)C(=O)O)O[C@@H](n2cnc3c(N)nc(C(C)O)nc32)[C@@H]1O` (stereo partly drawn) [Example 161, 2-(((2R,3S,4R,5R)-5-(6-amino-2-(1-hydroxyethyl)-9H-purin-9-yl)-3-ethynyl-3,4-dihydroxytetrahydrofuran-2-yl)methoxy)-2-benzylmalonic acid], `C#C[C@@]1(O)[C@@H](COC(Cc2ccccc2)(C(=O)O)C(=O)O)O[C@@H](n2cnc3c(N)nc(C(C)=O)nc32)[C@@H]1O` [Example 127, 2-(((2R,3S,4R,5R)-5-(2-acetyl-6-amino-9H-purin-9-yl)-3-ethynyl-3,4-dihydroxytetrahydrofuran-2-yl)methoxy)-2-benzylmalonic acid] is 3.3-fold lower in IC50: 561 nM for the first, 170 nM for the second.

First: C#C[C@@]1(O)[C@@H](COC(Cc2ccccc2)(C(=O)O)C(=O)O)O[C@@H](n2cnc3c(N4CCC[C@H]4CO)nc(Cl)nc32)[C@@H]1O [Example 104, 2-benzyl-2-(((2R,3S,4R,5R)-5-(2-chloro-6-((S)-2-(hydroxymethyl)-pyrrolidin-1-yl)-9H-purin-9-yl)-3-ethynyl-3,4-dihydroxytetrahydrofuran-2-yl)methoxy)malonic acid]
Second: C#C[C@@]1(O)[C@@H](COC(Cc2ccccc2)(C(=O)O)C(=O)O)O[C@@H](n2cnc3c(N(CCO)C4CC4)nc(Cl)nc32)[C@@H]1O [Example 99, 2-benzyl-2-(((2R,3S,4R,5R)-5-(2-chloro-6-(cyclopropyl(2-hydroxyethyl)amino)-9H-purin-9-yl)-3-ethynyl-3,4-dihydroxytetrahydrofuran-2-yl)methoxy)malonic acid]
The IC50 of the first is 3-fold lower: 2 nM for the first, 6 nM for the second. The first is the more potent here.

Compared with `C#C[C@@]1(O)[C@@H](COC(Cc2ccccc2)(C(=O)O)C(=O)O)O[C@@H](n2cnc3c(N[C@H](C)CO)nc(Cl)nc32)[C@@H]1O` [Example 98, 2-benzyl-2-(((2R,3S,4R,5R)-5-(2-chloro-6-(((R)-1-hydroxypropan-2-yl)amino)-9H-purin-9-yl)-3-ethynyl-3,4-dihydroxytetrahydrofuran-2-yl)methoxy)malonic acid], `C#C[C@@]1(O)[C@@H](COC(Cc2ccccc2)(C(=O)O)C(=O)O)O[C@@H](n2cnc3c(NC[C@H](C)O)nc(Cl)nc32)[C@@H]1O` [Example 36, 2-benzyl-2-(((2R,3S,4R,5R)-5-(2-chloro-6-(((S)-2-hydroxypropyl)amino)-9H-purin-9-yl)-3-ethynyl-3,4-dihydroxytetrahydrofuran-2-yl)methoxy)malonic acid] is 2-fold higher in IC50: 2 nM for the first, 4 nM for the second.

Going from `C#C[C@@]1(O)[C@@H](COC(Cc2ccccc2)(C(=O)O)C(=O)O)O[C@@H](n2cnc3c(NC)nc(Cl)nc32)[C@@H]1O` [Example 71, 2-benzyl-2-(((2R,3S,4R,5R)-5-(2-chloro-6-(methylamino)-9H-purin-9-yl)-3-ethynyl-3,4-dihydroxytetrahydrofuran-2-yl)methoxy)malonic acid] to `C#C[C@@]1(O)[C@@H](COC(Cc2ccccc2)(C(=O)O)C(=O)O)O[C@@H](n2cnc3c(NC[C@@H](C)O)nc(Cl)nc32)[C@@H]1O` [Example 35, 2-benzyl-2-(((2R,3S,4R,5R)-5-(2-chloro-6-(((R)-2-hydroxypropyl)amino)-9H-purin-9-yl)-3-ethynyl-3,4-dihydroxytetrahydrofuran-2-yl)methoxy)malonic acid], the IC50 falls from 6 nM to 4 nM (1.5-fold). The second is the more potent here.

Going from `C#C[C@@]1(O)[C@@H](COC(Cc2ccc(N3CCN(C)CC3=O)cc2)(C(=O)O)C(=O)O)O[C@@H](n2cnc3c(N)nc(Cl)nc32)[C@@H]1O` [Example 154, 2-(((2R,3S,4R,5R)-5-(6-amino-2-chloro-9H-purin-9-yl)-3-ethynyl-3,4-dihydroxytetrahydrofuran-2-yl)methoxy)-2-(4-(4-methyl-2-oxopiperazin-1-yl)benzyl)malonic acid] to `C#C[C@@]1(O)[C@@H](COC(Cc2ccc(N3CCCN(C)C3=O)cc2)(C(=O)O)C(=O)O)O[C@@H](n2cnc3c(N)nc(Cl)nc32)[C@@H]1O` [Example 149, 2-(((2R,3S,4R,5R)-5-(6-amino-2-chloro-9H-purin-9-yl)-3-ethynyl-3,4-dihydroxytetrahydrofuran-2-yl)methoxy)-2-(4-(3-methyl-2-oxotetrahydropyrimidin-1 (2H)-yl)benzyl)malonic acid], the IC50 falls from 2 nM to 0.11 nM (18-fold).

Going from `C#C[C@@]1(O)[C@@H](COC(Cc2ccc(N3CCCNC3=O)cc2)(C(=O)O)C(=O)O)O[C@@H](n2cc(C)c(=O)[nH]c2=O)[C@@H]1O` [Example 133, 2-(((2R,3S,4R,5R)-3-ethynyl-3,4-dihydroxy-5-(5-methyl-2,4-dioxo-3,4-dihydropyrimidin-1 (2H)-yl)tetrahydrofuran-2-yl)methoxy)-2-(4-(2-oxotetrahydropyrimidin-1 (2H)-yl)benzyl)malonic acid] to `C#C[C@@]1(O)[C@@H](COC(Cc2ccc(N3CCCCC3=O)cc2)(C(=O)O)C(=O)O)O[C@@H](n2cnc3c(N)nc(Cl)nc32)[C@@H]1O` [Compound 10, 2-(((2R,3S,4R,5R)-5-(6-amino-2-chloro-9H-purin-9-yl)-3-ethynyl-3,4-dihydroxytetrahydrofuran-2-yl)methoxy)-2-(4-(2-oxopiperidin-1-yl)benzyl)malonic acid], the IC50 falls from 7 nM to 0.26 nM (27-fold).

Compared with `C#C[C@@]1(O)[C@@H](COC(Cc2ccc(N3CCCC3)cc2)(C(=O)O)C(=O)O)O[C@@H](n2cnc3c(N)nc(Cl)nc32)[C@@H]1O` [Example 144, 2-(((2R,3S,4R,5R)-5-(6-amino-2-chloro-9H-purin-9-yl)-3-ethynyl-3,4-dihydroxytetrahydrofuran-2-yl)methoxy)-2-(4-(pyrrolidin-1-yl)benzyl)malonic acid], `C#C[C@@]1(O)[C@@H](COC(Cc2ccc(-c3ccccc3C(=O)O)cc2)(C(=O)O)C(=O)O)O[C@@H](n2cnc3c(N)nc(Cl)nc32)[C@@H]1O` [Example 54, 2-(((2R,3S,4R,5R)-5-(6-amino-2-chloro-9H-purin-9-yl)-3-ethynyl-3,4-dihydroxytetrahydrofuran-2-yl)methoxy)-2-((2′-carboxy-[1,1′-biphenyl]-4-yl)methyl)malonic acid] is 5-fold lower in IC50: 1 nM for the first, 0.2 nM for the second. The second is the more potent here.

Going from `C#C[C@@]1(O)[C@@H](COC(Cc2cncs2)(C(=O)O)C(=O)O)O[C@@H](n2cnc3c(N)nc(Cl)nc32)[C@@H]1O` [Example 143, 2-(((2R,3S,4R,5R)-5-(6-amino-2-chloro-9H-purin-9-yl)-3-ethynyl-3,4-dihydroxytetrahydrofuran-2-yl)methoxy)-2-(thiazol-5-ylmethyl)malonic acid] to `CC#C[C@@]1(O)[C@@H](COC(Cc2ccccc2)(C(=O)O)C(=O)O)O[C@@H](n2cnc3c(N)nc(Cl)nc32)[C@@H]1O` [Compound 3, 2-(((2R,3S,4R,5R)-5-(6-amino-2-chloro-9H-purin-9-yl)-3,4-dihydroxy-3-(prop-1-yn-1-yl)tetrahydrofuran-2-yl)methoxy)-2-benzylmalonic acid], the IC50 falls from 13 nM to 1 nM (13-fold).

With `C#C[C@@]1(O)[C@@H](COC(Cc2ccc(N3CCCN(CCO)C3=O)cc2)(C(=O)O)C(=O)O)O[C@@H](n2cnc3c(NCC4CC4)nc(Cl)nc32)[C@@H]1O` [Example 138, 2-(((2R,3S,4R,5R)-5-(2-chloro-6-((cyclopropylmethyl)amino)-9H-purin-9-yl)-3-ethynyl-3,4-dihydroxytetrahydrofuran-2-yl)methoxy)-2-(4-(3-(2-hydroxyethyl)-2-oxotetrahydropyrimidin-1 (2H)-yl)benzyl)malonic acid] the IC50 was 0.15 nM.
